Bridge positions count the residues as written; N and C are the ends. Square brackets hold non-standard residues; d marks the D form. Peptide text beside a SMILES is read from it. Hyp = O=C(O)[C@@H]1C[C@@H](O)CN1
Biological target: N-type or omega HVA neuronal calcium channels; calcium currents in N1E-115 neuroblastoma cells (Mus musculus, UniProt O55017)
Format: cell-based

N-type or omega HVA neuronal calcium channels; calcium currents in N1E-115 neuroblastoma cells, sequence (O55017 whole entry): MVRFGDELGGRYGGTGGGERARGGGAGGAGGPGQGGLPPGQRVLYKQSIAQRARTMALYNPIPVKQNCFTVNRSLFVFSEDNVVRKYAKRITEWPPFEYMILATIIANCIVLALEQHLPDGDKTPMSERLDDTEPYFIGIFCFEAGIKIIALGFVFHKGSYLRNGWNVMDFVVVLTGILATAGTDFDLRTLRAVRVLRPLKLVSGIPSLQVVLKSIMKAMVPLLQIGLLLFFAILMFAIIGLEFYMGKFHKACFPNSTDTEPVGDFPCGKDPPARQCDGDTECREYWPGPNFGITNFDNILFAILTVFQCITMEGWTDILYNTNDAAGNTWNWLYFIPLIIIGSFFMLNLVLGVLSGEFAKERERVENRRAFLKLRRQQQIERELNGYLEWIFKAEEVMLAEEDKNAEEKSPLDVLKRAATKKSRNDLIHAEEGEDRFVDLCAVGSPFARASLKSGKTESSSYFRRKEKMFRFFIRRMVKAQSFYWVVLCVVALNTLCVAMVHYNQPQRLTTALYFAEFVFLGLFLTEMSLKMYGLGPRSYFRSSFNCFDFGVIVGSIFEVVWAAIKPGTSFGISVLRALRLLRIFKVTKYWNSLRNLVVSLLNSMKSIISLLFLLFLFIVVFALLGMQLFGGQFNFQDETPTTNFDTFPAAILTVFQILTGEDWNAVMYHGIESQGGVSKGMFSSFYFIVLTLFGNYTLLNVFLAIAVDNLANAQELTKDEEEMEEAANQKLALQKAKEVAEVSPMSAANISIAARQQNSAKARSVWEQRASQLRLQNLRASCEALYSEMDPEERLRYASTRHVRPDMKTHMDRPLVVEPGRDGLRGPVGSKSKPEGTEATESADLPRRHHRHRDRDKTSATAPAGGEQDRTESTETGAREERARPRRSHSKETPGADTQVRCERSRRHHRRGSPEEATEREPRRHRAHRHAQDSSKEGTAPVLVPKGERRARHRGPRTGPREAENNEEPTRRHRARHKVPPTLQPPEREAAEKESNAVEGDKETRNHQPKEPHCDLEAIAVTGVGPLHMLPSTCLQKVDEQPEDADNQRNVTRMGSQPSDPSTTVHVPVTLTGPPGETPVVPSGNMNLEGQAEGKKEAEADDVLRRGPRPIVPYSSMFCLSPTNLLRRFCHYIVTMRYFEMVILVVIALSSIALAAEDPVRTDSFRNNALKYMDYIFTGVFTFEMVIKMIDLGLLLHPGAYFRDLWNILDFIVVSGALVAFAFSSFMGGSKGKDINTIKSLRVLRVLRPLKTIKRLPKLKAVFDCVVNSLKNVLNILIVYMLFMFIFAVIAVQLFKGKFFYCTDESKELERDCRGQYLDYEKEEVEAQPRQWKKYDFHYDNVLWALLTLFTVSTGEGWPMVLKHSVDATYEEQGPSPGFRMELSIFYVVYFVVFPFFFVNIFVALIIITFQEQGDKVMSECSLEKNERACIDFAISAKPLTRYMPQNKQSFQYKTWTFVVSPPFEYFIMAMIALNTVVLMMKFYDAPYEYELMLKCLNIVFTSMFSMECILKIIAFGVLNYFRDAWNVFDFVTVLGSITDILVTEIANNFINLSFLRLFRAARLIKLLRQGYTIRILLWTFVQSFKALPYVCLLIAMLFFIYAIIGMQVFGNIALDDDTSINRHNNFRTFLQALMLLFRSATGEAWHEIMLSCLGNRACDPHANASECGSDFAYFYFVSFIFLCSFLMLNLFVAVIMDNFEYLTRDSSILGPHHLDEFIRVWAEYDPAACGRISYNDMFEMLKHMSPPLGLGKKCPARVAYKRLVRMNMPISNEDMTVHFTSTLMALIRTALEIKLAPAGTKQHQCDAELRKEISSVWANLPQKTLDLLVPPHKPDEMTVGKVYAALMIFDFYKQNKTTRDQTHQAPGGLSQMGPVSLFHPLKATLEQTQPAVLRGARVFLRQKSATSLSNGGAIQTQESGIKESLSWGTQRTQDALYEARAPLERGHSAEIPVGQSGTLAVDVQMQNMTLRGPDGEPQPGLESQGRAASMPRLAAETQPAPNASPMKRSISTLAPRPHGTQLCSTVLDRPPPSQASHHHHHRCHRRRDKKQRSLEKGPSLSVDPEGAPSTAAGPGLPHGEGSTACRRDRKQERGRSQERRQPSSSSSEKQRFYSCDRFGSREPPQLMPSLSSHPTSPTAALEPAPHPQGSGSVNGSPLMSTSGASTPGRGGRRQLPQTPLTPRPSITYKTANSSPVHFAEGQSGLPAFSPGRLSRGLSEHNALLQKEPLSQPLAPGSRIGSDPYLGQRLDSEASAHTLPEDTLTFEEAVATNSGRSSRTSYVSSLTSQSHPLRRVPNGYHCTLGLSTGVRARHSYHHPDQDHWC
N-type or omega HVA neuronal calcium channels; calcium currents in N1E-115 neuroblastoma cells, sequence (O08532 25-956 partner limits assumed): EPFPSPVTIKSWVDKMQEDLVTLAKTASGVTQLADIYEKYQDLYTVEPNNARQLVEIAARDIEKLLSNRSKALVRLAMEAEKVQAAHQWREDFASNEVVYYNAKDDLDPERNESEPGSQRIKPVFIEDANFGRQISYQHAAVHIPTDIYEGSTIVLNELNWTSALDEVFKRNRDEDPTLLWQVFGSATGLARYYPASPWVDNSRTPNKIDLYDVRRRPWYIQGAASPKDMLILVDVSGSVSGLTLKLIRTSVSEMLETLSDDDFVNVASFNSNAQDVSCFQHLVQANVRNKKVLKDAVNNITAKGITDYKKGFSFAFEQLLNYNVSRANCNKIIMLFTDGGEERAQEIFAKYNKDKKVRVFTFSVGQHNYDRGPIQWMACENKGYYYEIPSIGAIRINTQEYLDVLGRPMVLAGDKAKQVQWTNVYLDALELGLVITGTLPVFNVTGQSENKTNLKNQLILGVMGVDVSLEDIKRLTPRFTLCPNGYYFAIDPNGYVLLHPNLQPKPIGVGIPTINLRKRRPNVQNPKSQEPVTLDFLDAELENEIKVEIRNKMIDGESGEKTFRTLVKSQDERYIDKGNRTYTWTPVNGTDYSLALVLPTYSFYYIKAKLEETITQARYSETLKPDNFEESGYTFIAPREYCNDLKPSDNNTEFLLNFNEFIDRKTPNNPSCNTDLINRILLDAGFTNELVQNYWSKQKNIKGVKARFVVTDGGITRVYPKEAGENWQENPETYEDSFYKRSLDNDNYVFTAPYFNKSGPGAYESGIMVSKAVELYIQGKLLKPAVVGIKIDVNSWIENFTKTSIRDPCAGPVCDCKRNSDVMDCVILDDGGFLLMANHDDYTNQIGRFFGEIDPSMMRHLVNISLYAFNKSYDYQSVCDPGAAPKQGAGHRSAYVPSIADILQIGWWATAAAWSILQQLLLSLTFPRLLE
N-type or omega HVA neuronal calcium channels; calcium currents in N1E-115 neuroblastoma cells, sequence (O08532 957-1103 partner limits assumed): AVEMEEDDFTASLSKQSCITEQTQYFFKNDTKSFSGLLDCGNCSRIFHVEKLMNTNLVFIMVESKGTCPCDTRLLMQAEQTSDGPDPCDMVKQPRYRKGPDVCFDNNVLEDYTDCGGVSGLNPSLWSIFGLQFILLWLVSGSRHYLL

CC[C@H](C)[C@@H]1NC(=O)[C@H](CO)NC(=O)[C@H]([C@@H](C)O)NC(=O)[C@H](C(C)C)NC(=O)CNC(=O)[C@@H]2CSSC[C@@H]3NC(=O)[C@H](CCCNC(=N)N)NC(=O)CNC(=O)[C@H](CSSC[C@H](N)C(=O)N[C@@H](CCCNC(=N)N)C(=O)N[C@@H](CO)C(=O)N[C@@H](CO)C(=O)NCC(=O)N[C@@H](CO)C(=O)N4C[C@H](O)C[C@H]4C(=O)N2)NC(=O)[C@H](CSSC[C@@H](C(=O)N[C@H](C(N)=O)[C@@H](C)O)NC(=O)[C@H](CCCCN)NC(=O)CNC(=O)[C@H](CCCNC(=N)N)NC(=O)[C@H](Cc2ccc(O)cc2)NC3=O)NC1=O [SNX-157] (H-CRSSGS[Hyp]CGVTSICCGRCYRGKCT-NH2; disulfide 1-15, 8-18, 14-23)
IC50, inhibition of calcium currents in N1E-115 neuroblastoma cells: > 20 μM

From patent US5364842A (priority 1993, dated 1994)
